# Experimental data published in patent publication US20260297081A1, “COMPOUNDS AND METHODS OF TREATING CANCERS” (Cullgen Inc., priority 2023, published 2026).
# pIC50: −log10 of the molar value.
# Key:
# Type in all cases: cell-based
# Calu-1 cells = assay: Anti-proliferation (viability) of NSCLC Calu-1 cells, 3 days (Table 7, FIG. 2B); conditions: Homo sapiens, 72 h; Calu-1 cells, 3 days, 10-point serial dilution; read-out: GI IC50 in Calu-1
# Outline: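 Cells treated with heterobifunctional compounds in 10-point serial dilution, then viability measured; Calu-1 NSCLC cells exposed for 3 days, ER+ T47D breast cancer cells for 6 days.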
# MCF7 cells = assay: Anti-proliferation (viability) of MCF7 cells (Table 7, FIG. 2B); conditions: Homo sapiens, MCF7, MCF7 cells, 3-6 days, 10-point serial dilution; read-out: GI IC50 in MCF-7
# CDK4 = CDK4 (Homo sapiens, UniProt P11802+Q16531); assay: CDK4 percentage degradation in Calu-1 cells (Table 6); parameters: Cells that express cyclin D1-3 and CDK4/6 proteins were treated with heterobifunctional compounds; endogenous in cells; host or cells: Calu-1; conditions: 16 hours; for inhibition at 0.04 µM: 40 nM; for inhibition at 0.2 µM: 200 nM
# Sequence of CDK4 (P11802 2-303 limits assumed): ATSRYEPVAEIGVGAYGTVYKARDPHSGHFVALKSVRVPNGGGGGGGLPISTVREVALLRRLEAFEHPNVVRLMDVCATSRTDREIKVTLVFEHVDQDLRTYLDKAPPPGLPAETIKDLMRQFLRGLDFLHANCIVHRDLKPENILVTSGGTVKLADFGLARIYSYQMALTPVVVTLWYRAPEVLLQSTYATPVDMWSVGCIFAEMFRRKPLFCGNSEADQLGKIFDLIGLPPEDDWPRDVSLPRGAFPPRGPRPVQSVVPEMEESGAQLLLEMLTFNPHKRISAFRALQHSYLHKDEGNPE
# Sequence of CDK4 (P24385 whole entry partner): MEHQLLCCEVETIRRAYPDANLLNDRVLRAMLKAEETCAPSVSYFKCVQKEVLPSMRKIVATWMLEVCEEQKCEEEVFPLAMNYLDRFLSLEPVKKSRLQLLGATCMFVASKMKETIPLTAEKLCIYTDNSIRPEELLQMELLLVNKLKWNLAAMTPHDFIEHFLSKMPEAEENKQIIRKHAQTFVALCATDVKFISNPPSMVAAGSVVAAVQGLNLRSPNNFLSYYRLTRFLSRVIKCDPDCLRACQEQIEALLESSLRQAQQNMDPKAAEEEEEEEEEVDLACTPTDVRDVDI
# Sequence of CDK4 (Q16531 2-1140 limits assumed): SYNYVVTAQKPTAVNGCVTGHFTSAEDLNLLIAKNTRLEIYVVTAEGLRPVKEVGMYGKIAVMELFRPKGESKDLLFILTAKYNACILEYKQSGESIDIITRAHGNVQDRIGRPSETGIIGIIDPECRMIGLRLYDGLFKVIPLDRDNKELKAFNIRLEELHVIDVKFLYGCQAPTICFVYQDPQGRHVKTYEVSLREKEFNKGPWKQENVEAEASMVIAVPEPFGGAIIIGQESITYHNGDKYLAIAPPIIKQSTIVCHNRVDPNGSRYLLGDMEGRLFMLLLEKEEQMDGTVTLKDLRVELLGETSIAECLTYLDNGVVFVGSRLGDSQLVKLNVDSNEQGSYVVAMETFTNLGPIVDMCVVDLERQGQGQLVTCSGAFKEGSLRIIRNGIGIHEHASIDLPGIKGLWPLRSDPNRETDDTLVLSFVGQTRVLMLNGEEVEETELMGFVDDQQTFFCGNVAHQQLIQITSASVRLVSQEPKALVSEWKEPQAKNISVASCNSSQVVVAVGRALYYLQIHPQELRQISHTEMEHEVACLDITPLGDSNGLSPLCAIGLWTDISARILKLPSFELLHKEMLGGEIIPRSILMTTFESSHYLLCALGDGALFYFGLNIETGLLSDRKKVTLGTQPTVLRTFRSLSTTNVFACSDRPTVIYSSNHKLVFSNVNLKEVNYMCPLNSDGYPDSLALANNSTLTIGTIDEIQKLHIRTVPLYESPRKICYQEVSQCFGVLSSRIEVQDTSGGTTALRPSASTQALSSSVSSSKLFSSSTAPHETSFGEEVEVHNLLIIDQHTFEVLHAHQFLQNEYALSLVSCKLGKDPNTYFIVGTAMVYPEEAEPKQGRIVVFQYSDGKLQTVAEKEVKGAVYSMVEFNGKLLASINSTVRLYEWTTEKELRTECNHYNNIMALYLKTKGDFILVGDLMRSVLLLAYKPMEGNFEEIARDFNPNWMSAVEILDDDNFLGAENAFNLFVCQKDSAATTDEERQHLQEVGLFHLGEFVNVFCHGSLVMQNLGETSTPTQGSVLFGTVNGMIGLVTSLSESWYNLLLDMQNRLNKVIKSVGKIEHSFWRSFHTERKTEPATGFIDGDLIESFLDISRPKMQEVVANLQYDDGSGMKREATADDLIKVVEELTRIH
# Outline: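 Calu-1 cells exposed to heterobifunctional compounds at 40 nM or 200 nM for 16 h. Cyclin D1 and CDK4 levels measured by Western blot of RIPA lysates (BCA-normalised loading), bands quantified by densitometry and expressed as percentage degradation.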
SMILES,pIC50 (Calu-1 cells),pIC50 (MCF7 cells),inhibition at 0.04 µM (CDK4) [%],inhibition at 0.2 µM (CDK4) [%]
"CNc1ccc(C(=O)Nc2cc(C)n(C)n2)c(NC2CC(CNC(=O)CN3CCN(c4ccc(Nc5ncc6c(C)c(C(C)=O)c(=O)n(C7CCCC7)c6n5)nc4)CC3)C2)n1 (centres unmarked) [CPD-165, 2-((3-((2-(4-(6-((6-acetyl-8-cyclopentyl-5-methyl-7-oxo-7,8-dihydropyrido[2,3-d]pyrimidin-2-yl)amino)pyridin-3-yl)piperazin-1-yl)acetamido)methyl)cyclobutyl)amino)-N-(1,5-dimethyl-1H-pyrazol-3-yl)-6-(methylamino)nicotinamide]",≥ 8.00,< 7.00,50 to 80,> 80
"CNc1ccc(C(=O)Nc2ccc(N(C)C)nn2)c(NC2CC(CNC(=O)C(C)(C)N3CCN(c4ccc(Nc5ncc6c(C)c(C(C)=O)c(=O)n(C7CCCC7)c6n5)nc4)CC3)C2)n1 (centres unmarked) [CPD-167, 2-((3-((2-(4-(6-((6-acetyl-8-cyclopentyl-5-methyl-7-oxo-7,8-dihydropyrido[2,3-d]pyrimidin-2-yl)amino)pyridin-3-yl)piperazin-1-yl)-2-methylpropanamido)methyl)cyclobutyl)amino)-N-(6-(dimethylamino)pyridazin-3-yl)-6-(methylamino)nicotinamide]",≥ 8.00,> 7.30,> 80,> 80
"CNc1ccc(C(=O)Nc2cccc(C)n2)c(NC2CC(CNC(=O)CN3CCN(c4ccc(Nc5ncc6c(C)c(C(C)=O)c(=O)n(C7CCCC7)c6n5)nc4)CC3)C2)n1 (centres unmarked) [CPD-170, 2-((3-((2-(4-(6-((6-acetyl-8-cyclopentyl-5-methyl-7-oxo-7,8-dihydropyrido[2,3-d]pyrimidin-2-yl)amino)pyridin-3-yl)piperazin-1-yl)acetamido)methyl)cyclobutyl)amino)-6-(methylamino)-N-(6-methylpyridin-2-yl)nicotinamide]",≥ 8.00,7.00 to 7.30,50 to 80,> 80
"CNc1ccc(C(=O)Nc2cccc(C)n2)c(NC2CC3(C2)CN(C(=O)C2(CN4CCN(c5ccc(Nc6ncc7c(C)c(C(C)=O)c(=O)n(C8CCCC8)c7n6)nc5)CC4)CC2)C3)n1 [CPD-171, 2-((2-(1-((4-(6-((6-acetyl-8-cyclopentyl-5-methyl-7-oxo-7,8-dihydropyrido[2,3-d]pyrimidin-2-yl)amino)pyridin-3-yl)piperazin-1-yl)methyl)cyclopropane-1-carbonyl)-2-azaspiro[3.3]heptan-6-yl)amino)-6-(methylamino)-N-(6-methylpyridin-2-yl)nicotinamide]",≥ 8.00,> 7.30,> 80,> 80
"CNc1ccc(C(=O)Nc2cccc(C3CC3)n2)c(NC2CC3(C2)CN(C(=O)C2(CN4CCN(c5ccc(Nc6ncc7c(C)c(C(C)=O)c(=O)n(C8CCCC8)c7n6)nc5)CC4)CC2)C3)n1 [CPD-173, 2-((2-(1-((4-(6-((6-acetyl-8-cyclopentyl-5-methyl-7-oxo-7,8-dihydropyrido[2,3-d]pyrimidin-2-yl)amino)pyridin-3-yl)piperazin-1-yl)methyl)cyclopropane-1-carbonyl)-2-azaspiro[3.3]heptan-6-yl)amino)-N-(6-cyclopropylpyridin-2-yl)-6-(methylamino)nicotinamide]",≥ 8.00,> 7.30,> 80,> 80
"CNc1ccc(C(=O)Nc2ccc(N(C)C)nn2)c(NC2CC3(CC(NC(=O)C(C)(C)N4CCN(c5ccc(Nc6ncc7c(C)c(C(C)=O)c(=O)n(C8CCCC8)c7n6)nc5)CC4)C3)C2)n1 (centres unmarked) [CPD-174, 2-((6-(2-(4-(6-((6-acetyl-8-cyclopentyl-5-methyl-7-oxo-7,8-dihydropyrido[2,3-d]pyrimidin-2-yl)amino)pyridin-3-yl)piperazin-1-yl)-2-methylpropanamido)spiro[3.3]heptan-2-yl)amino)-N-(6-(dimethylamino)pyridazin-3-yl)-6-(methylamino)nicotinamide]",7.30 to 8.00,< 7.00,50 to 80,> 80

# The next lines start with the values.
pIC50 (Calu-1 cells),pIC50 (MCF7 cells),inhibition at 0.04 µM (CDK4) [%],inhibition at 0.2 µM (CDK4) [%],SMILES
≥ 8.00,7.00 to 7.30,50 to 80,50 to 80,"CNc1ccc(C(=O)Nc2ccc(N(C)C)nn2)c(NC2CC(OCCC(=O)N3CCN(c4ccc(Nc5ncc6c(C)c(C(C)=O)c(=O)n(C7CCCC7)c6n5)nc4)CC3)C2)n1 (centres unmarked) [CPD-178, 2-((3-(3-(4-(6-((6-acetyl-8-cyclopentyl-5-methyl-7-oxo-7,8-dihydropyrido[2,3-d]pyrimidin-2-yl)amino)pyridin-3-yl)piperazin-1-yl)-3-oxopropoxy)cyclobutyl)amino)-N-(6-(dimethylamino)pyridazin-3-yl)-6-(methylamino)nicotinamide]"
7.30 to 8.00,< 7.00,50 to 80,50 to 80,"CNc1ccc(C(=O)Nc2ccc(N(C)C)nn2)c(NC2CN(C(=O)CCN3CCN(c4ccc(Nc5ncc6c(C)c(C(C)=O)c(=O)n(C7CCCC7)c6n5)nc4)CC3)C2)n1 [CPD-186, 2-((1-(3-(4-(6-((6-acetyl-8-cyclopentyl-5-methyl-7-oxo-7,8-dihydropyrido[2,3-d]pyrimidin-2-yl)amino)pyridin-3-yl)piperazin-1-yl)propanoyl)azetidin-3-yl)amino)-N-(6-(dimethylamino)pyridazin-3-yl)-6-(methylamino)nicotinamide]"
7.30 to 8.00,< 7.00,50 to 80,50 to 80,"CNc1ccc(C(=O)Nc2ccc(N(C)C)nn2)c(NC2CC3(C2)CC(OC(C)C(=O)N2CCN(c4ccc(Nc5ncc6c(C)c(C(C)=O)c(=O)n(C7CCCC7)c6n5)nc4)CC2)C3)n1 (centres unmarked) [CPD-189, 2-((6-((1-(4-(6-((6-acetyl-8-cyclopentyl-5-methyl-7-oxo-7,8-dihydropyrido[2,3-d]pyrimidin-2-yl)amino)pyridin-3-yl)piperazin-1-yl)-1-oxopropan-2-yl)oxy)spiro[3.3]heptan-2-yl)amino)-N-(6-(dimethylamino)pyridazin-3-yl)-6-(methylamino)nicotinamide]"
≥ 8.00,7.00 to 7.30,50 to 80,50 to 80,"CC(=O)c1c(C)c2cnc(Nc3ccc(N4CCN(CC(=O)NC5CC6(C5)CC(Nc5nc(NC(C)C)ccc5C(=O)Nc5cccc(C)n5)C6)CC4)cn3)nc2n(C2CCCC2)c1=O (centres unmarked) [CPD-190, 2-((6-(2-(4-(6-((6-acetyl-8-cyclopentyl-5-methyl-7-oxo-7,8-dihydropyrido[2,3-d]pyrimidin-2-yl)amino)pyridin-3-yl)piperazin-1-yl)acetamido)spiro[3.3]heptan-2-yl)amino)-6-(isopropylamino)-N-(6-methylpyridin-2-yl)nicotinamide]"
≥ 8.00,7.00 to 7.30,50 to 80,50 to 80,"CC(=O)c1c(C)c2cnc(Nc3ccc(N4CCN(CC(=O)NC5CC6(C5)CC(Nc5nc(NC(C)C)ccc5C(=O)Nc5cc(C)on5)C6)CC4)cn3)nc2n(C2CCCC2)c1=O (centres unmarked) [CPD-199, 2-((6-(2-(4-(6-((6-acetyl-8-cyclopentyl-5-methyl-7-oxo-7,8-dihydropyrido[2,3-d]pyrimidin-2-yl)amino)pyridin-3-yl)piperazin-1-yl)acetamido)spiro[3.3]heptan-2-yl)amino)-6-(isopropylamino)-N-(5-methylisoxazol-3-yl)nicotinamide]"
≥ 8.00,7.00 to 7.30,50 to 80,50 to 80,"CNc1ccc(C(=O)Nc2ccc(N(C)C)nn2)c(NC2CCN(C(=O)CN3CCN(c4ccc(Nc5ncc6c(C)c(C(C)=O)c(=O)n(C7CCCC7)c6n5)nc4)CC3)CC2)n1 [CPD-200, 2-((1-(2-(4-(6-((6-acetyl-8-cyclopentyl-5-methyl-7-oxo-7,8-dihydropyrido[2,3-d]pyrimidin-2-yl)amino)pyridin-3-yl)piperazin-1-yl)acetyl)piperidin-4-yl)amino)-N-(6-(dimethylamino)pyridazin-3-yl)-6-(methylamino)nicotinamide]"
≥ 8.00,< 7.00,50 to 80,50 to 80,"[2H]C([2H])([2H])Nc1ccc(C(=O)Nc2cc(C)n(C)n2)c(NC2CC(CNC(=O)CN3CCN(c4ccc(Nc5ncc6c(C)c(C(C)=O)c(=O)n(C7CCCC7)c6n5)nc4)CC3)C2)n1 (centres unmarked) [CPD-206, 2-((3-((2-(4-(6-((6-acetyl-8-cyclopentyl-5-methyl-7-oxo-7,8-dihydropyrido[2,3-d]pyrimidin-2-yl)amino)pyridin-3-yl)piperazin-1-yl)acetamido)methyl)cyclobutyl)amino)-N-(1,5-dimethyl-1H-pyrazol-3-yl)-6-((methyl-d3)amino)nicotinamide]"
≥ 8.00,> 7.30,50 to 80,> 80,"CNc1ccc(C(=O)Nc2ccc(N(C)C)nn2)c(NC2CC3(C2)CN(C(=O)C(F)(F)CN2CCN(c4ccc(Nc5ncc6c(C)c(C(C)=O)c(=O)n(C7CCCC7)c6n5)nc4)CC2)C3)n1 [CPD-208, 2-((2-(3-(4-(6-((6-acetyl-8-cyclopentyl-5-methyl-7-oxo-7,8-dihydropyrido[2,3-d]pyrimidin-2-yl)amino)pyridin-3-yl)piperazin-1-yl)-2,2-difluoropropanoyl)-2-azaspiro[3.3]heptan-6-yl)amino)-N-(6-(dimethylamino)pyridazin-3-yl)-6-(methylamino)nicotinamide]"
